The source of these data is patent US20220018836A1, “NON-LIVING SURROGATE INDICATORS AND METHODS FOR SANITATION VALIDATION” (priority 2018, published 2022).

SMILES strings stand for the structures.

The subject of one assay is E. coli O157:H7 cells. In kind it is cell-based, Escherichia coli O157:H7.
Another assay concerns phage T7. As to the kind of experiment: Survivor population of phage T7 after sanitizer treatment. In kind it is cell-based. As to conditions: 2 min, 4° C.

For the compound `CC(=O)OO` [PAA, peracetic acid], in the assay with E. coli O157:H7 cells, the “further inactivation of E. coli O157:H7 with an increase of PAA concentration” value was “no significant inactivation”, the “inactivation of E. coli O157:H7 cells” value was found to be 2 log and the “survivors of E. coli O157:H7” value is “around 4 log”. The “inactivation of phage T7” value in the assay with phage T7 (PAA at 80 ppm, 9 log inoculum level) is “more than 6 log”. Further, the “complete inactivation of phages” value in the assay on phage T7 (PAA up to 80 ppm, 9 log inoculum level) is listed as “complete inactivation of phages (9 log inoculum level) was not observed”.

Turning to `OCl` [chlorine, sodium hypochlorite], the “complete inactivation of inoculated phages” value in the assay with phage T7 (lowest concentration tested, 2 ppm of free chlorine) is given as “complete inactivation of inoculated phages was observed”.
